Test results: article PMC8253220, “Molecular design, synthesis and in vitro biological evaluation of thienopyrimidine–hydroxamic acids as chimeric kinase HDAC inhibitors: a challenging approach to combat cancer” (Journal of Enzyme Inhibition and Medicinal Chemistry, 2021)
Values joined by “and” are separate entries in the source; they are usually repeats but may differ in a detail not shown here. Equal entries are not always repeated.

Experiments:
Type in all cases: cell-based, human
A549/ATCC = experiment: NCI one-dose screen; settings: NSCLC A549/ATCC, 10 µM single dose
How it was run: (§1)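 At 10 μM, a single concentration, compounds were evaluated for antiproliferative effect in the NCI 60-line screen, with growth expressed relative to untreated control cells.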

BT-549 = experiment: NCI one-dose screen; settings: Breast BT-549, 10 µM single dose
How it was run: as §1

CAKI-1 = experiment: NCI one-dose screen; settings: Renal CAKI-1, 10 µM single dose
How it was run: as §1

DU-145 = experiment: NCI one-dose screen; settings: Prostate DU-145, 10 µM single dose
How it was run: as §1

EKVX = experiment: NCI one-dose screen; settings: NSCLC EKVX; for Growth Percent: 10 µM single dose
How it was run: (§2)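 Compounds were tested at a single dose of 10 μM across the full NCI-60 cell line panel. Growth was expressed as percent growth relative to untreated control cells, reported as percent inhibition.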

HCC-2998 = experiment: NCI one-dose screen; settings: Colon HCC-2998, 10 µM single dose
How it was run: as §1

HCT-15 = experiment: NCI one-dose screen; settings: Colon HCT-15, 10 µM single dose
How it was run: as §1

HL-60(TB) = experiment: NCI one-dose screen; settings: Leukemia HL-60(TB), 10 µM single dose
How it was run: as §1

HOP-62 = experiment: NCI one-dose screen; settings: NSCLC HOP-62, 10 µM single dose
How it was run: as §1

HOP-92 = experiment: NCI one-dose screen; settings: NSCLC HOP-92, 10 µM single dose
How it was run: as §1

HS 578T = experiment: NCI one-dose screen; settings: Breast HS 578T, 10 µM single dose
How it was run: as §1

KM12 = experiment: NCI one-dose screen; settings: Colon KM12, 10 µM single dose
How it was run: (§3)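 Growth of treated cells is compared with untreated controls to give percent inhibition. Compounds are applied once at 10 μM across the NCI 60 cancer cell panel.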

MCF7 = experiment: NCI one-dose screen; settings: Breast MCF7, 10 µM single dose
How it was run: as §3

MDA-MB-231/ATCC = experiment: NCI one-dose screen; settings: Breast MDA-MB-231/ATCC, 10 µM single dose
How it was run: as §1

MDA-MB-435 = experiment: NCI one-dose screen; settings: Melanoma MDA-MB-435, 10 µM single dose
How it was run: as §1

MDA-MB-468 = experiment: NCI one-dose screen; settings: Breast MDA-MB-468, 10 µM single dose
How it was run: as §3

NCI-H322M = experiment: NCI one-dose screen; settings: NSCLC NCI-H322M, 10 µM single dose
How it was run: as §1

NCI-H460 = experiment: NCI one-dose screen; settings: NSCLC NCI-H460, 10 µM single dose
How it was run: as §1

OVCAR-3 = experiment: NCI one-dose screen; settings: Ovarian OVCAR-3, 10 µM single dose
How it was run: as §1

OVCAR-4 = experiment: NCI one-dose screen; settings: Ovarian OVCAR-4, 10 µM single dose
How it was run: as §1

OVCAR-5 = experiment: NCI one-dose screen; settings: Ovarian OVCAR-5, 10 µM single dose
How it was run: as §1

OVCAR-8 = experiment: NCI one-dose screen; settings: Ovarian OVCAR-8, 10 µM single dose
How it was run: as §1

PC-3 = experiment: NCI one-dose screen; settings: Prostate PC-3, 10 µM single dose
How it was run: (§4)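 Following the standard NCI-60 protocol, compounds were applied once at 10 μM to all 60 cancer lines. Read-out is percent growth versus untreated controls, expressed as inhibition %.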

RPMI-8226 = experiment: NCI one-dose screen; settings: Leukemia RPMI-8226, 10 µM single dose
How it was run: as §1

RXF 393 = experiment: NCI one-dose screen; settings: Renal RXF 393, 10 µM single dose
How it was run: as §1

SF-295 = experiment: NCI one-dose screen; settings: CNS SF-295, 10 µM single dose
How it was run: as §1

SF-539 = experiment: NCI one-dose screen; settings: CNS SF-539, 10 µM single dose
How it was run: as §3

SK-MEL-28 = experiment: NCI one-dose screen; settings: Melanoma SK-MEL-28, 10 µM single dose
How it was run: as §4

SK-MEL-5 = experiment: NCI one-dose screen; settings: Melanoma SK-MEL-5, 10 µM single dose
How it was run: as §1

SK-OV-3 = experiment: NCI one-dose screen; settings: Ovarian SK-OV-3, 10 µM single dose
How it was run: as §1

SN12C = experiment: NCI one-dose screen; settings: Renal SN12C, 10 µM single dose
How it was run: as §1

TK-10 = experiment: NCI one-dose screen; settings: Renal TK-10, 10 µM single dose
How it was run: as §1

U251 = experiment: NCI one-dose screen; settings: CNS U251, 10 µM single dose
How it was run: as §2

UACC-257 = experiment: NCI one-dose screen; settings: Melanoma UACC-257, 10 µM single dose
How it was run: as §4

UO-31 = experiment: NCI one-dose screen; settings: for Growth Percent: Renal UO-31, 10 µM single dose
How it was run: as §2

full NCI 60 cell panel = experiment: NCI one-dose screen, whole panel statistics; settings: 1.00E-5 Molar; for Mean Growth Percent: mean over panel
How it was run: as §4

SMILES	Growth Percent (A549/ATCC)	Growth Percent (BT-549)	Growth Percent (CAKI-1)	Growth Percent (DU-145)	Growth Percent (EKVX)	Growth Percent (HCC-2998)	Growth Percent (HCT-15)	Growth Percent (HL-60(TB))	Growth Percent (HOP-62)	Growth Percent (HOP-92)	Growth Percent (HS 578T)	Growth Percent (KM12)	Growth Percent (MCF7)	Growth Percent (MDA-MB-231/ATCC)	Growth Percent (MDA-MB-435)	Growth Percent (MDA-MB-468)	Growth Percent (NCI-H322M)	Growth Percent (NCI-H460)	Growth Percent (OVCAR-3)	Growth Percent (OVCAR-4)	also measured
Cc1c(C(=O)NO)sc2ncnc(Nc3cccc4[nH]cnc34)c12 [Compound 15a, 4-(1H-benzo[d]imidazol-4-ylamino)-N-hydroxy-5-methylthieno[2,3-d]pyrimidine-6-carboxamide]	99.5% and 99.51%	113.5% and 113.56%	92.9% and 92.95%	109.5% and 109.53%	98.4% and 98.44%	100.9% and 100.92%	102.15%	101.2% and 101.27%	104.2%	118.2% and 118.26%	106.4% and 106.47%	101.12%	95.2% and 95.25%	102.4% and 102.49%	101.5% and 101.54%	101.3% and 101.31%	99.4% and 99.43%	102.7% and 102.72%	106.1% and 106.13%	111.9% and 111.94%	Growth Percent (OVCAR-5): 107.0% and 107.01%; Growth Percent (OVCAR-8): 103.6% and 103.64%; Growth Percent (PC-3): 104.3% and 104.34%; Growth Percent (RPMI-8226): 112.17%; Growth Percent (RXF 393): 101.2% and 101.28%; Growth Percent (SF-295): 103.7%; Growth Percent (SF-539): 102.5% and 102.52%; Growth Percent (SK-MEL-28): 107.8% and 107.83%; Growth Percent (SK-MEL-5): 101.5% and 101.54%; Growth Percent (SK-OV-3): 124.5% and 124.53%; Growth Percent (SN12C): 102.0% and 102.01%; Growth Percent (TK-10): 113.8% and 113.84%; Growth Percent (U251): 96.7% and 96.72%; Growth Percent (UACC-257): 112.4% and 112.47%; Growth Percent (UO-31): 80.6% and 80.64%; Delta (one dose mean graph) (full NCI 60 cell panel): 22.48%; Range (one dose mean graph) (full NCI 60 cell panel): 43.89%; Mean Growth Percent (full NCI 60 cell panel): 103.12%
Cc1c(C(=O)NO)sc2ncnc(Nc3ccccc3)c12 [Compound 15b, N-hydroxy-5-methyl-4-(phenylamino)thieno[2,3-d]pyrimidine-6-carboxamide]	98.3% and 98.37%	112.4% and 112.44%	77.6% and 77.61%	100.1% and 100.13%	92.7% and 92.76%	99.9% and 99.98%	91.3% and 91.34%	103.0% and 103.03%	103.6% and 103.61%	99.8% and 99.83%	104.7% and 104.75%	102.0% and 102.03%	87.2% and 87.27%	100.3% and 100.34%	98.5% and 98.58%	80.8%	101.8% and 101.81%	101.6% and 101.66%	96.9% and 96.92%	94.7% and 94.72%	Growth Percent (OVCAR-5): 98.4% and 98.41%; Growth Percent (OVCAR-8): 104.4% and 104.46%; Growth Percent (PC-3): 100.1% and 100.15%; Growth Percent (RPMI-8226): 106.0% and 106.04%; Growth Percent (RXF 393): 97.2% and 97.22%; Growth Percent (SF-295): 91.9% and 91.96%; Growth Percent (SF-539): 92.8% and 92.86%; Growth Percent (SK-MEL-28): 100.9% and 100.91%; Growth Percent (SK-MEL-5): 99.0% and 99.02%; Growth Percent (SK-OV-3): 125.8% and 125.83%; Growth Percent (SN12C): 92.8% and 92.82%; Growth Percent (TK-10): 123.2% and 123.28%; Growth Percent (U251): 90.0% and 90.06%; Growth Percent (UACC-257): 107.0% and 107.03%; Growth Percent (UO-31): 72.7% and 72.78%; Delta (one dose mean graph) (full NCI 60 cell panel): 24.31%; Range (one dose mean graph) (full NCI 60 cell panel): 53.05%; Mean Growth Percent (full NCI 60 cell panel): 97.09%
Cc1c(C(=O)NO)sc2ncnc(Nc3ccc(Cl)cc3)c12 [Compound 15c, 4–(4-chlorophenylamino)-N-hydroxy-5-methylthieno[2,3-d]pyrimidine-6-carboxamide]	105.8% and 105.88%	116.4% and 116.44%	86.4% and 86.45%	108.8% and 108.86%	79.4% and 79.43%	115.4% and 115.42%	101.7% and 101.72%	104.9% and 104.93%	92.8% and 92.81%	101.5% and 101.51%	102.5% and 102.54%	100.9% and 100.92%	88.6%	88.1% and 88.18%	102.4% and 102.42%	102.9% and 102.91%	97.2% and 97.24%	98.9% and 98.93%	98.9% and 98.94%	106.3% and 106.34%	inhibition at 10 µM (EKVX; Homo sapiens, 10 μM): 20.6%; Growth Percent (OVCAR-5): 107.6% and 107.61%; Growth Percent (OVCAR-8): 102.0% and 102.02%; Growth Percent (PC-3): 97.6% and 97.64%; Growth Percent (RPMI-8226): 104.3% and 104.38%; Growth Percent (RXF 393): 106.7% and 106.75%; Growth Percent (SF-295): 102.7% and 102.79%; Growth Percent (SF-539): 104.0%; Growth Percent (SK-MEL-28): 110.6% and 110.64%; Growth Percent (SK-MEL-5): 96.9% and 96.96%; Growth Percent (SK-OV-3): 93.4% and 93.42%; Growth Percent (SN12C): 98.6% and 98.63%; Growth Percent (TK-10): 154.5% and 154.58%; Growth Percent (U251): 100.9% and 100.96%; Growth Percent (UACC-257): 110.0% and 110.09%; inhibition at 10 µM (UO-31; Homo sapiens, renal UO-31, 10 μM): 28.8%; Growth Percent (UO-31): 71.2%; Delta (one dose mean graph) (full NCI 60 cell panel): 28.53%; Range (one dose mean graph) (full NCI 60 cell panel): 83.38%; Mean Growth Percent (full NCI 60 cell panel): 99.73%
